The subject of one assay is Gabpα–Pparγ interaction. Briefly: Co-IP of His-Gabpα and Myc-Pparγ with peptide GPCBi. The format is binding. The conditions noted are these: HEK293T cells cotransfected with His‐Gabpα and Myc‐Pparγ, GPCBi 30 µM, 48 h, anti‐His IP (Figure S4c).
For assay [1], the system named is differentiated iBAT‐SVF cells. As to the kind of experiment: Relative mRNA and protein levels in differentiated iBAT-SVF cells. The following applies: GPCBi 5 µM. The format is cell-based, C57BL/6 mice. As for the experimental part: Interscapular BAT‐SVF cells were obtained from eight‐week‐old male C57BL/6 mice. […] The tissue homogenates were filtered through a 70 µm cell strainer and centrifuged at 1000 rpm for 5 min. The cell pellet was resuspended in DMEM supplemented with 10% FBS (Sigma–Aldrich) and 1% penicillin/streptomycin (P/S) at 37 °C with 5% CO2. The next day, BAT‐SVF cells were immortalized with the SV40 large T antigen according to a published protocol.^[ [32] ^] […] After 48 h, the induction medium was replaced with a maintenance cocktail (5 µg mL^−1 insulin, 1 nM triiodo‐L‐thyronine, and 1 µM rosiglitazone) until 6 to 8 days after the induction of differentiation.
Reverse transcription of cDNA was completed via the use of 1 µg of RNA with HiScript II Q RT SuperMix for real‐time quantitative PCR (qPCR) (Vazyme Biotech, Nanjing, China, Cat# R222) according to the provided protocols. qPCR was performed with a real‐time PCR system on a QuantStudio1 (Applied Biosystems) using Taq Pro Universal SYBR qPCR Master Mix (Vazyme Biotech., Nanjing, China, Cat# Q712‐02). Relative transcript levels were calculated via the comparative C T method; 36b4 was used as the internal control for cells, whereas Hprt was used as the internal control for tissues. The primer sequences are listed in Table S1 (Supporting Information). The mRNAs from the BAT of control and Gabpα ^Ucp1 KO mice were extracted and subjected to commercial RNA‐seq (BGI Genomics Co., Ltd.) for further DEG and KEGG pathway enrichment analysis. In detail, RNA quality was examined with Fragment (Agilent). High‐quality RNA (RIN > 8.0) was used to library construction. RNA‐seq was performed at BGI Genomics (China) using the Illumina NovaSeq 6000 platform. Clean reads were aligned to the mouse reference genome (GRCm39) using Bowtie2, and transcript quantification was performed with RSEM. […] The RNA‐seq data generated in this study have been deposited in the National Center for Biotechnology Information Sequence Read Archive database under accession code PRJNA1358056.
Cells and tissues were lysed in RIPA lysis buffer (Beyotime, Shanghai, China, Cat# P0013B) containing a protease inhibitor cocktail (MedChem Express, NJ, USA, Cat# HY‐K0010) according to the manufacturer's protocol. Equal amounts of protein were separated on SDS‒PAGE gels and transferred to PVDF membranes (Millipore). The PVDF membranes were blocked in 5% skim milk for 1 h at room temperature and then incubated with primary antibody overnight at 4 °C. The membranes were washed three times with TBST and then incubated with HRP‐conjugated secondary antibodies for 1 h at room temperature. After washing three times, the Western blots were imaged via an enhanced chemiluminescence system.

The next assay has as its system BAT from wild‐type mice. Briefly: H&E staining and Ucp1 immunostaining of BAT. It is filed as in vivo, wild‐type C57BL/6J mice. The following applies: GPCBi 5.5 mg kg^−1 orthotopically into BAT. The method, then: The mouse experiments were approved by the Institutional Animal Care and Use Committee of the Institute of Model Animals of Tongji Hospital, Huazhong University of Science and Technology, and were performed in compliance with all relevant ethical regulations (approval number: TJH‐202110044). Unless otherwise noted, the mice were housed in a pathogen‐free and climate‐controlled environment (22–25 °C, 40‐60% humidity) and were given free access to food and water on a 12 h light/dark cycle. Wild‐type C57BL/6J mice were obtained from Beijing Huafukang Bioscience Co., Ltd. (Beijing, China). Gabpa ^flox/flox , Adipoq^Cre , and Ucp1^Cre mice were purchased from Cyagen Biosciences, Inc. (Guangzhou, China). For GPCBi treatment, wild‐type mice were orthotopically injected GPCBi (FITC‐[…]; 5.5 mg kg^−1) or scramble peptide (FITC‐[…]; 5.5 mg kg^−1) into the BAT at room temperature for one week. […] For cold exposure, the mice were caged individually and exposed to a temperature of 10 or 4 °C. The mice were euthanized by CO2 inhalation. For studies with specific diets, five‐week‐old male Gabpα ^Adipo KI mice and their respective littermate control mice were fed a HFD (D12492, Research Diets; 60 kcal% fat, 20 kcal% carbohydrates, and 20 kcal% protein; Medicience Ltd., Jiangsu, China) at ambient temperature. The food was changed every week. Body weight was measured every week, and tissue weights were measured at the time of euthanasia.
For haematoxylin and eosin (H&E) staining, adipose tissues and the liver were fixed in 4% paraformaldehyde overnight at 4 °C and then dehydrated in 70% ethanol. The tissues were subsequently embedded in paraffin, sectioned at a thickness of 5 µm, and stained with H&E or immunostained with a Ucp1 antibody (Abcam, UK, Cat# ab234430, 1:500 dilution) following the standard protocol. For Oil Red O staining, frozen liver sections were stained with Oil Red O solution for 10 min and then counterstained with haematoxylin for 20 s. Images of the tissue samples were captured via an Olympus BX53 Orthomicroscope. […]

For assay [2], the system named is wild‐type mice. Briefly: Oxygen consumption and heat production (CLAMS). It is filed as in vivo, wild‐type C57BL/6J mice. The following applies: GPCBi‐injected mice, room temperature, n = 4 (Figure 4n,o; Figure S4i,j). The method, then: The mouse experiments were approved by the Institutional Animal Care and Use Committee of the Institute of Model Animals of Tongji Hospital, Huazhong University of Science and Technology, and were performed in compliance with all relevant ethical regulations (approval number: TJH‐202110044). Unless otherwise noted, the mice were housed in a pathogen‐free and climate‐controlled environment (22–25 °C, 40‐60% humidity) and were given free access to food and water on a 12 h light/dark cycle. Wild‐type C57BL/6J mice were obtained from Beijing Huafukang Bioscience Co., Ltd. (Beijing, China). Gabpa ^flox/flox , Adipoq^Cre , and Ucp1^Cre mice were purchased from Cyagen Biosciences, Inc. (Guangzhou, China). For GPCBi treatment, wild‐type mice were orthotopically injected GPCBi (FITC‐[…]; 5.5 mg kg^−1) or scramble peptide (FITC‐[…]; 5.5 mg kg^−1) into the BAT at room temperature for one week. […] Body weight was measured every week, and tissue weights were measured at the time of euthanasia.
Three‐month‐old mice (Gabpα ^Ucp1 KO, Gabpα ^Adipo KI, peptide GPCBi, and respective littermate control mice) were subjected to whole‐body energy expenditure measurements in metabolic chambers. Oxygen consumption and heat production were monitored via a Comprehensive Laboratory Animal Monitoring System (CLAMS, Columbus Instruments) at specific temperatures. […]

Assay [3] concerns wild‐type mice. As to the kind of experiment: Cold challenge: rectal core body temperature and survival. It is filed as in vivo, wild‐type C57BL/6J mice. The following applies: 4 °C. The method, then:
The mouse experiments were approved by the Institutional Animal Care and Use Committee of the Institute of Model Animals of Tongji Hospital, Huazhong University of Science and Technology, and were performed in compliance with all relevant ethical regulations (approval number: TJH‐202110044). Unless otherwise noted, the mice were housed in a pathogen‐free and climate‐controlled environment (22–25 °C, 40‐60% humidity) and were given free access to food and water on a 12 h light/dark cycle. Wild‐type C57BL/6J mice were obtained from Beijing Huafukang Bioscience Co., Ltd. (Beijing, China). Gabpa ^flox/flox , Adipoq^Cre , and Ucp1^Cre mice were purchased from Cyagen Biosciences, Inc. (Guangzhou, China). For GPCBi treatment, wild‐type mice were orthotopically injected GPCBi (FITC‐[…]; 5.5 mg kg^−1) or scramble peptide (FITC‐[…]; 5.5 mg kg^−1) into the BAT at room temperature for one week. […] For cold exposure, the mice were caged individually and exposed to a temperature of 10 or 4 °C. The mice were euthanized by CO2 inhalation. […] Body weight was measured every week, and tissue weights were measured at the time of euthanasia.

Residues, ends and D or L forms follow the SMILES beside them. *: point of attachment. FITC = O=C1OC2(c3ccc(O)cc3Oc3cc(O)ccc32)c2ccc(NC(=S)*)cc21

For `CC[C@H](C)[C@H](NC(=O)[C@H](CCCNC(=N)N)NC(=O)[C@H](CS)NC(=O)[C@H](CC(N)=O)NC(=O)[C@H](CC(C)C)NC(=O)[C@H](CC(=O)O)NC(=O)[C@H](CS)NC(=O)[C@H](CCCNC(=N)N)NC(=O)[C@H](CC(=O)O)NC(=O)[C@H](Cc1ccc(O)cc1)NC(=O)[C@@H](NC(=O)[C@H](CC(C)C)NC(=O)[C@H](CCCCN)NC(=O)[C@H](CC(C)C)NC(=O)[C@H](CCCNC(=N)N)NC(=O)[C@@H](NC(=O)[C@@H](NC(=O)[C@H](CCCNC(=N)N)NC(=O)[C@H](CCCNC(=N)N)NC(=O)[C@H](CCCNC(=N)N)NC(=O)[C@H](CCCNC(=N)N)NC(=O)[C@H](CCCNC(=N)N)NC(=O)[C@H](CCC(N)=O)NC(=O)[C@H](CCCNC(=N)N)NC(=O)[C@H](CCCNC(=N)N)NC(=O)[C@H](CCCCN)NC(=O)[C@H](CCCCN)NC(=O)[C@H](CCCNC(=N)N)NC(=O)CNC(=O)[C@H](Cc1ccc(O)cc1)NC(=S)Nc1ccc2c(c1)C(=O)OC21c2ccc(O)cc2Oc2cc(O)ccc21)[C@@H](C)O)[C@@H](C)CC)[C@@H](C)CC)C(=O)N[C@@H](Cc1c[nH]cn1)C(=O)N[C@@H](CCCCN)C(=O)N[C@@H](CCCCN)C(=O)N[C@@H](CO)C(=O)N[C@@H](CCCNC(=N)N)C(=O)N[C@@H](CC(N)=O)C(=O)N[C@@H](CCCCN)C(=O)O` [GPCBi] ({FITC}-YGRKKRRQRRRRRTIRLKLIYDRCDLNCRIHKKSRNK-OH; N-terminus and C-terminus assumed), the “binding capacity between Gabpα and Pparγ” value in the assay with Gabpα–Pparγ interaction is reported as “decreased”. Further, the “expression of glycolytic and thermogenic genes” value in assay [1] (first 2 days of adipogenic differentiation (Figure 4e,f), mRNA n = 3) was “decreased the expression of glycolytic and thermogenic genes”. Also, the “expression of adipogenic gene Adipoq” value in assay [1] (first 2 days of adipogenic differentiation (Figure 4e,f), n = 3) was “did not change”. Further, the “expression of Ldh and Ucp1 in brown adipocytes” value in assay [1] (first 2 days of adipogenic differentiation (Figure 5m)) is on record as “lower expression”. For the same molecule, the “regulatory gene expression of the futile lipid cycle, differentiated iBAT‐SVF cells” value in assay [1] (first 2 days of adipogenic differentiation (Figure S5c)) was “substantially impaired”. Moreover, the “thermogenic gene ucp1 in GPCBi‐treated brown adipocytes” value in assay [1] (first 2 days of adipogenic differentiation, without Enoblock (Figure 5p)) was “downregulated”. Moreover, the “lipid accumulation in BAT” value with BAT from wild‐type mice (H&E, 7 days (Figure 4i,j)) was “increased lipid accumulation”. Further, the “Ucp1 abundance in BAT” value with BAT from wild‐type mice (Ucp1 immunostaining, 7 days (Figure 4i,k)) is listed as “decreased Ucp1 abundance”. Moreover, in the assay with wild‐type mice [2], the “oxygen consumption and heat production” value is “significant decreases”. For the same molecule, in the assay with wild‐type mice [3] (control n = 7, GPCBi n = 8 (Figure 4q)), the “maintenance of core body temperature under acute cold stress” value is listed as “struggled to maintain their core body temperatures”. For the same molecule, the “mortality under acute cold stress” value with wild‐type mice [3] (control n = 7, GPCBi n = 8 (Figure 4r)) was “increased mortality”.

The values above are taken from publication PMC12884720, “Gabpα‐Pparγ Complex Determines Glycolytic Capacity and Lactic Acid Homeostasis in Brown Fat” (Advanced Science, 2025).
